Activity calls are given as the source filed them. The rule behind the calls is not given here.
Experiments:
Rattus norvegicus [1] = assay: Hypolipidemic activity in HFD-induced Charles Foster rat chronic hyperlipidemia model assessed as increase in fecal excretion of deoxycholic acid at 100 mg/kg administered via oral gavage for 30 days simultaneously with high fat diet by enzymatic method relative to HFD treated vehicle; assay type: functional
Rattus norvegicus [2] = assay: Antihyperlipidemic activity in po dosed triton WR-1339 induced Charles Foster rat hyperlipidemia model assessed as inhibition of phospholipid level in serum administered simultaneously with triton WR-1339 after 18 hrs by enzymatic method relative to control; assay type: functional, organism-based
Rattus norvegicus [3] = organism: Rattus norvegicus; assay: animal or person; assay type: functional; settings: Charles Foster, po, 18 h
Description: Antihyperlipidemic activity in triton WR-1339 induced Charles Foster rat hyperlipidemia model assessed as inhibition of triglyceride level in serum at 100 mg/kg, po administered simultaneously with triton WR-1339 after 18 hrs by enzymatic method relative to control

[4] = target: T1, 3-hydroxy-3-methylglutaryl-coenzyme A reductase (Homo sapiens) (UniProt P04035); assay: Inhibition of human HMG-CoA reductase catalytic domain at 50 uM using HMG-CoA as substrate in presence of NADPH by colorimetric method relative to control
T1 sequence (whole entry): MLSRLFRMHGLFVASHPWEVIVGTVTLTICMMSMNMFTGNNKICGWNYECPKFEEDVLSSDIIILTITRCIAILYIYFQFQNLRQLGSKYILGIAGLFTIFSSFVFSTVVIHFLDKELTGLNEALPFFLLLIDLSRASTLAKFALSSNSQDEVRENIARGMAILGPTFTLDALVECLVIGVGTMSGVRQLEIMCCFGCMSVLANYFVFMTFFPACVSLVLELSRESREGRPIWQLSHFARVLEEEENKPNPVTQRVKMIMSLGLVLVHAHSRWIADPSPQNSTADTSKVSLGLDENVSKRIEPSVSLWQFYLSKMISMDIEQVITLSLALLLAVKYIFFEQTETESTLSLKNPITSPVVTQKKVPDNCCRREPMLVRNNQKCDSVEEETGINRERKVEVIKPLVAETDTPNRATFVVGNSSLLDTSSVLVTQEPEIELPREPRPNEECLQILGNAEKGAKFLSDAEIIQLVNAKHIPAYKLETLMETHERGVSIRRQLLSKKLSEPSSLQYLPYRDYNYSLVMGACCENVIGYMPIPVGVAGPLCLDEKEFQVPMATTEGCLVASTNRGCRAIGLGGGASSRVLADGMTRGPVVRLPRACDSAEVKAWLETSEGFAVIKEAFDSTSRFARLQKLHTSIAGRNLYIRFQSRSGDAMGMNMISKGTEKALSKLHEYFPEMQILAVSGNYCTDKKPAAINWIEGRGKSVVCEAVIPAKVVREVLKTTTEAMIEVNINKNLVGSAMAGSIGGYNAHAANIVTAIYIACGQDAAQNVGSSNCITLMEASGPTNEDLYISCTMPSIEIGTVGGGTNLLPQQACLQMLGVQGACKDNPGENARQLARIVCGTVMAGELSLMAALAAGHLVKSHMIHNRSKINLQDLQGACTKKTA

[5] = target: T1, 3-hydroxy-3-methylglutaryl-coenzyme A reductase (Homo sapiens); assay: Inhibition of human HMG-CoA reductase catalytic domain at 100 uM using HMG-CoA as substrate in presence of NADPH by colorimetric method relative to control
[6] = Apparent MRT in Sprague-Dawley rat at 100 mg/kg, po administered as single dose by LC-MS/MS analysis; assay type: ADME, organism-based; settings: in vivo
Liver = assay: Stability in Sprague-Dawley rat liver microsomes at 10 uM in absence of NADPH after 5 to 90 mins by LC-MS/MS analysis; assay type: ADME, microsome
Rattus norvegicus [7] = assay: Hypolipidemic activity in HFD-induced Charles Foster rat chronic hyperlipidemia model assessed as reduction in serum total cholesterol level at 100 mg/kg administered via oral gavage for 30 days simultaneously with high fat diet by enzymatic method relative to HFD treated vehicle; assay type: functional; settings: 720 h
Rattus norvegicus [8] = assay: Hypolipidemic activity in HFD-induced Charles Foster rat chronic hyperlipidemia model assessed as reduction in serum AST level at 100 mg/kg administered via oral gavage for 30 days simultaneously with high fat diet by colorimetric method relative to HFD treated vehicle; assay type: functional; settings: 720 h
Rattus norvegicus [9] = assay: Antihyperlipidemic activity in po dosed triton WR-1339 induced Charles Foster rat hyperlipidemia model assessed as inhibition of total cholesterol level in serum administered simultaneously with triton WR-1339 after 18 hrs by enzymatic method relative to control; assay type: functional, organism-based
[10] = AUC (0 to infinity) in Sprague-Dawley rat at 100 mg/kg, po administered as single dose by LC-MS/MS analysis; assay type: ADME, organism-based; set-up: dose 100 mg/kg, time infinity, route oral; settings: in vivo
Rattus norvegicus [11] = organism: Rattus norvegicus; assay: animal or person; assay type: functional; settings: Charles Foster, po, 18 h; remark: listed apart in the source
Description: Antihyperlipidemic activity in triton WR-1339 induced Charles Foster rat hyperlipidemia model assessed as inhibition of phospholipid level in serum at 100 mg/kg, po administered simultaneously with triton WR-1339 after 18 hrs by enzymatic method relative to control

Rattus norvegicus [12] = assay: Hypolipidemic activity in HFD-induced Charles Foster rat assessed as increase in serum HDL-TG at 100 mg/kg administered as single dose via oral gavage for 30 days simultaneously with high fat diet; assay type: functional, organism-based
[13] = Cmax in Sprague-Dawley rat at 100 mg/kg, po administered as single dose by LC-MS/MS analysis; assay type: ADME, organism-based; set-up: dose 100 mg/kg, route oral; settings: in vivo
Rattus norvegicus [14] = assay: Hypolipidemic activity in HFD-induced Charles Foster rat assessed as increase in serum HDL-TC at 100 mg/kg administered as single dose via oral gavage for 30 days simultaneously with high fat diet; assay type: functional, organism-based
Rattus norvegicus [15] = assay: Hypolipidemic activity in HFD-induced Charles Foster rat assessed as reduction in serum LDL-TC at 100 mg/kg administered as single dose via oral gavage for 30 days simultaneously with high fat diet; assay type: functional, organism-based
Rattus norvegicus [16] = assay: Antihyperlipidemic activity in triton WR-1339 induced Charles Foster rat hyperlipidemia model assessed as increase in HDL-C level in serum at 100 mg/kg, po administered simultaneously with triton WR-1339 after 18 hrs by enzymatic method relative to control; assay type: functional
Albumin [17] = target: T2, Albumin (Bos taurus, UniProt P02769); assay: Binding affinity to bovine serum albumin by fluorescence quenching method; assay type: ADME; settings: cattle, isolated protein
T2 sequence (P02769 whole entry): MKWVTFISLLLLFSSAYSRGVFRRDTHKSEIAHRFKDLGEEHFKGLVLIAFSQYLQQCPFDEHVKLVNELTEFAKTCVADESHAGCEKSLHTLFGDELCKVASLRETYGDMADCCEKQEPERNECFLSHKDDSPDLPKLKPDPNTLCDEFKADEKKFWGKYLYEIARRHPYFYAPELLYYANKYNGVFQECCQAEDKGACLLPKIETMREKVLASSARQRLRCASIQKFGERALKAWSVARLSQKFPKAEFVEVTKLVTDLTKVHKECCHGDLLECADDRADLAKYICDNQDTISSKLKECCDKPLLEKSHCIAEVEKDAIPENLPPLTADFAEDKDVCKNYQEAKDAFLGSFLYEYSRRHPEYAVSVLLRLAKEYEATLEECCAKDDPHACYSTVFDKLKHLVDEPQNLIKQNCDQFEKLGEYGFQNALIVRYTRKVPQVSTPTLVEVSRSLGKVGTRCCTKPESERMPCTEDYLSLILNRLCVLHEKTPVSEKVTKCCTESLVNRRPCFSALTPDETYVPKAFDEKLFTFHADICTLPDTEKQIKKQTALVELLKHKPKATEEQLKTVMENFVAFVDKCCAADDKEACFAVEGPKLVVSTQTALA

Rattus norvegicus [18] = assay: Hypolipidemic activity in HFD-induced Charles Foster rat chronic hyperlipidemia model assessed as increase in fecal excretion of cholic acid at 100 mg/kg administered via oral gavage for 30 days simultaneously with high fat diet by enzymatic method relative to HFD treated vehicle; assay type: functional
Rattus norvegicus [19] = assay: Hypolipidemic activity in HFD-induced Charles Foster rat assessed as reduction in serum VLDL-TC at 100 mg/kg administered as single dose via oral gavage for 30 days simultaneously with high fat diet; assay type: functional, organism-based
[20] = Tmax in Sprague-Dawley rat at 100 mg/kg, po administered as single dose by LC-MS/MS analysis; assay type: ADME, organism-based; settings: in vivo
Rattus norvegicus [21] = assay: Antihyperlipidemic activity in triton WR-1339 induced Charles Foster rat hyperlipidemia model assessed as increase in HDL-C level in serum at 50 mg/kg, po administered simultaneously with triton WR-1339 after 18 hrs by enzymatic method relative to control; assay type: functional
[22] = target: T1, 3-hydroxy-3-methylglutaryl-coenzyme A reductase (Homo sapiens); assay: Inhibition of human HMG-CoA reductase catalytic domain at 1 uM using HMG-CoA as substrate in presence of NADPH by colorimetric method relative to control
[23] = target: T1, 3-hydroxy-3-methylglutaryl-coenzyme A reductase (Homo sapiens); assay: Inhibition of human HMG-CoA reductase catalytic domain at 5 uM using HMG-CoA as substrate in presence of NADPH by colorimetric method relative to control
Albumin [24] = target: T2, Albumin; assay: Binding affinity to bovine serum albumin by absorption spectroscopic method; assay type: ADME; settings: cattle, isolated protein
[25] = target: T1, 3-hydroxy-3-methylglutaryl-coenzyme A reductase (Homo sapiens); assay: Inhibition of human HMG-CoA reductase catalytic domain at 20 uM using HMG-CoA as substrate in presence of NADPH by colorimetric method relative to control

## COc1ccc(-c2cc3cc(C(c4c[nH]c5ccccc45)c4c[nH]c5ccccc45)cc(C(C)(C)C)c3oc2=O)cc1OC
Rattus norvegicus [1]
  Activity: 39%
Rattus norvegicus [2]
  inhibition: Dose-dependent effect
Rattus norvegicus [3]
  inhibition in vivo at 100 mg/kg: 33%
[4]
  inhibition: 74%
[5]
  inhibition: 81%
[6]
  MRT: 4.46 h
Liver
  Stability: Stable
Rattus norvegicus [7]
  inhibition in vivo at 100 mg/kg: 24%
Rattus norvegicus [8]
  inhibition in vivo at 100 mg/kg: 28%
Rattus norvegicus [9]
  inhibition: Dose-dependent effect
[10]
  AUC(0-inf): 417 ng·h/mL
Rattus norvegicus [11]
  inhibition in vivo at 100 mg/kg: 33%
Rattus norvegicus [12]
  Activity: Active
[13]
  Cmax: 79 ng/mL
Rattus norvegicus [14]
  Activity: Active
Rattus norvegicus [15]
  Activity: Active
Rattus norvegicus [16]
  Activity: 23%
Albumin [17]
  Activity: Active
Rattus norvegicus [18]
  Activity: 31%
Rattus norvegicus [19]
  Activity: Active
[20]
  Tmax: 4 h
Rattus norvegicus [21]
  Activity: 15%
[22]
  inhibition: 19%
[23]
  inhibition: 32%
Albumin [24]
  Activity: Active
[25]
  inhibition: 63%

From ChEMBL document CHEMBL3997763 (Medchemcomm, 2016)
